We go through 2 compounds from US20260231948A1, “AN HERBICIDAL COMBINATION, COMPOSITION AND METHOD OF CONTROLLING WEEDS USING THE SAME” (priority 2023, published 2026).

The subject of assay [1] is Viola arvensis, Bromus spp., Lolium spp., Agropyron repens and Urtica urens. To be noted: Hoechst et al., 1991; cited from earlier work.
The subject of the next assay is Brachiaria decumbens. The assay is described as follows: Greenhouse post-emergence herbicidal activity on Brachiaria decumbens. Type of assay: in vivo. The protocol:
The expected efficacy of a combination of L-glufosinate ammonium and the other herbicides was calculated using the well-established Colby method. Any difference between the observed and “expected” efficacy could be attributed to synergy between the two compounds.
In the Colby method, the expected (or predicted) response of a combination of herbicides is calculated by taking the product of the observed response for each individual component of the combination when applied alone, divided by 100, and subtracting this value from the sum of the observed response for each component when applied alone. An unexpected enhancement in efficacy of the combination is then determined by comparing the observed response of the combination to the expected (or predicted) response as calculated from the observed response of each individual component alone. If the observed response of the combination is greater than the expected (or predicted) response, or stated conversely, if the difference between the observed and expected response is greater than zero, then the combination is said to be synergistic or unexpectedly effective (Colby, S. R., Weeds, 1967(15), p. 20-22). […]
The percentage efficacy was calculated at 7, 14, 21 and 28 days after application (DAA). The target weed was Brachiaria decumbens, and the concentration of the herbicide and the results are recorded Table 1.

`CP(=O)(O)CCC(N)C(=O)O` (racemic) [glufosinate, DL-homoalanin-4-yl(methyl)phosphinic acid]: in assay [1], the “Control of weed species by glufosinate” value is “either not combated, or only weakly combated”. On to `CS(=O)(=O)c1cc(C(F)(F)F)ccc1C(=O)c1cnoc1C1CC1` [isoxaflutole], for which the figures for the “Observed efficacy (%) of isoxaflutole (60 g a.i./ha)” value in the assay with Brachiaria decumbens (7 DAA) and in the assay on Brachiaria decumbens (14 DAA) were 45% and 70%, respectively.
